*: point of attachment. AMC = Cc1cc(=O)oc2cc(N*)ccc12; Boc = CC(C)(C)OC(=O)*; OBn = c1ccc(CO*)cc1
Key:
[1] = system: ARS-FLAG culture supernatant (recombinant ARS protein, SEQ ID NO:2 1st to 531st); experiment: Enzymatic cleavage of MCA-labeled synthetic peptides by ARS-FLAG culture supernatant; type: biochemical, human; details: substrate 100 μM in TBS pH 7.5, 37° C.; never obtained with blank vector supernatant
Description: (§1) The expression plasmids prepared in Examples 3 to 5 were introduced into HEK293-EBNA cell (Invitrogen) using a transfection reagent (FuGENE™6 transfection reagent; Roche) according to the instruction attached thereto. After the introduction of the plasmids, the culture medium was replaced with a serum-free culture medium within 12 to 16 hours and further incubated for another 48 to 60 hours. The culture supernatant was collected and resulting each liquid culture was centrifuged (3000 rpm, 10 minutes) with a centrifuge (Type 8800; Kubota) to obtain culture supernatants. After removing the culture supernatants, the remaining cells were washed with phosphate buffer (PBS; 10 mM sodium phosphate, pH 7.5) and then recovered by scraping from the culture plate by pipetting with phosphate buffer, and centrifuged with a centrifuge (Type 8800; Kubota) at 3000 rpm for 10 minutes. The resulting precipitate was suspended in phosphate buffer, which was defined as the cell fraction. The culture supernatants obtained by the introduction of pCEP-ARSF-FLAG, pCEP-signal-FLAG-ARS-extracellular and pCEP-signal-FLAG-ARS-SerPD are referred to as ARS-FLAG culture supernatant, signal-FLAG-ARS-extracellular culture supernatant, signal-FLAG-ARS-SerPD culture supernatant and signal-FLAG-ARS-SerPDO culture supernatant, respectively.
(§2) The method for detecting enzymatic cleavage activity using a synthetic peptide labeled with MCA (4-methyl-coumaryl-7-amide) in the C terminus was according to the method reported in an academic paper (Yasuoka, S. et al., Am. J. Respir. Cell Mol Biol., Vol. 16, 300-308, 1997), unless otherwise described. […] Subsequently, the fluorescence of AMC (7-amino-4-methyl-coumarin) released from the synthetic peptide by enzymatic cleavage was measured at a wavelength of 460 nm for measurement, using an excitation wavelength of 390 nm with a fluorescent plate reader (Fluostar, SLT).

[2] = target: T1, signal-FLAG-ARS-extracellular culture supernatant (SEQ ID NO:2 51st to 531st) (Homo sapiens, UniProt Q7Z410, INS90FVSSFQKTELEASCVGCSVLNYRDGNSSVLVHFQ); experiment: Enzymatic cleavage of MCA-labeled synthetic peptides by signal-FLAG-ARS-extracellular culture supernatant; type: biochemical; details: substrate 100 μM in TBS pH 7.5, 37° C.; never obtained with blank vector supernatant
T1 construct: made in house; host or cells: HEK293-EBNA
T1 sequence (Q7Z410 with tags, fused parts or gaps): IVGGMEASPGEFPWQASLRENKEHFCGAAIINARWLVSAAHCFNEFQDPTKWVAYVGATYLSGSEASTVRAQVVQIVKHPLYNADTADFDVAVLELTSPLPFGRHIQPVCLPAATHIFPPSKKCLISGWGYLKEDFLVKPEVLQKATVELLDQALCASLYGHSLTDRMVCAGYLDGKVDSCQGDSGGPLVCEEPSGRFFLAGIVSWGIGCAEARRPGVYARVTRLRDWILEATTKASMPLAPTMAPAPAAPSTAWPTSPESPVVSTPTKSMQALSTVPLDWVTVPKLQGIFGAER
T1 sequence (Q7Z410 with tags, fused parts or gaps INS90FVSSFQKTELEASCVGCSVLNYRDGNSSVLVHFQ): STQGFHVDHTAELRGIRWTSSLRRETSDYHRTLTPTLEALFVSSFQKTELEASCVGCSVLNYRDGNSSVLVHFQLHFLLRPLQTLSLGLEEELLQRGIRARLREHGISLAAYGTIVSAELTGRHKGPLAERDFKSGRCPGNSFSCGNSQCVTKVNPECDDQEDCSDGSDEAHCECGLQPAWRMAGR
Description: as §1, §2

[3] = target: T2, signal-FLAG-ARS-SerPDO culture supernatant (SEQ ID NO:2 237th to 464th) (Homo sapiens, UniProt Q7Z410); experiment: Enzymatic cleavage of MCA-labeled synthetic peptides by signal-FLAG-ARS-SerPDO culture supernatant; type: biochemical; details: substrate 100 μM in TBS pH 7.5, 37° C.; never obtained with blank vector supernatant
T2 construct: made in house; host or cells: HEK293-EBNA
T2 sequence (Q7Z410 203-430): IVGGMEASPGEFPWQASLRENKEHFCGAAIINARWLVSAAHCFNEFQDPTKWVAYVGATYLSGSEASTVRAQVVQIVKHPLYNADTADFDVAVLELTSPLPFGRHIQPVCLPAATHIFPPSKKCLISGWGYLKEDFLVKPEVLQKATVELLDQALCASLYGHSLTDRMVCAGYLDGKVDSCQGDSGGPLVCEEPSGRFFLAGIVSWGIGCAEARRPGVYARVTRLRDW
Description: as §1, §2

[4] = target: T3, enzyme solution treated with trypsin beads (purified signal-FLAG-ARS-extracellular protein) (Homo sapiens, UniProt Q7Z410, INS90FVSSFQKTELEASCVGCSVLNYRDGNSSVLVHFQ); experiment: Substrate cleavage activity of purified protein solution treated with trypsin beads; type: biochemical; details: substrate 400 μM, ammonium hydrogen carbonate buffer, 37° C. for one hour
T3 construct: FLAG (N); made in house; host or cells: HEK293-EBNA
T3 sequence (Q7Z410 with tags, fused parts or gaps): T1 sequence (Q7Z410 with tags, fused parts or gaps)
T3 sequence (Q7Z410 with tags, fused parts or gaps INS90FVSSFQKTELEASCVGCSVLNYRDGNSSVLVHFQ): T1 sequence (Q7Z410 with tags, fused parts or gaps INS90FVSSFQKTELEASCVGCSVLNYRDGNSSVLVHFQ)
Description: By the same method as in Example 9, an enzyme solution treated with trypsin beads was obtained, using the purified protein solution. Then, the substrate cleavage activity of the enzyme solution was measured by the same method as in Example 8. Specifically, synthetic peptide substrates were diluted in ammonium hydrogen carbonate buffer to become a final concentration of 400 μM in a 96-well plate. After the enzyme solution described above was mixed into the resulting diluted substrates, the mixture were incubated at 37° C. for one hour. Subsequently, the fluorescence of AMC released from the synthetic peptide by enzymatic cleavage were measured.

| Substance | cleavage activity of synthetic peptide (fluorescence of released AMC) [1] | cleavage activity of synthetic peptide (fluorescence of released AMC) [2] | cleavage activity of synthetic peptide (fluorescence of released AMC) [3] | cleavage of synthetic peptide by enzyme solution treated with trypsin beads (fluorescence of released AMC) [4] |
| --- | --- | --- | --- | --- |
| Boc-Gln-Arg-Arg-{AMC} | showed the cleavage activity | showed the cleavage activity | showed the cleavage activity | cleaved |
| Boc-Phe-Ser-Arg-{AMC} | showed the cleavage activity | showed the cleavage activity | showed the cleavage activity | cleaved |
| Boc-Glu(OBn)-Ala-Arg-{AMC} | showed the cleavage activity | showed the cleavage activity | showed the cleavage activity | cleaved |

— US20060134719A1, “Novel serine protease” (priority 2002, published 2006)
